{"source": "ChEMBL document CHEMBL1201862", "about": "“PubChem BioAssay data set” (2004)", "key": {"Aminopeptidase N": {"biological_target": "T1, Aminopeptidase N (Plasmodium falciparum FcB1/Columbia, UniProt O96935)", "T1 sequence (O96935 whole entry)": "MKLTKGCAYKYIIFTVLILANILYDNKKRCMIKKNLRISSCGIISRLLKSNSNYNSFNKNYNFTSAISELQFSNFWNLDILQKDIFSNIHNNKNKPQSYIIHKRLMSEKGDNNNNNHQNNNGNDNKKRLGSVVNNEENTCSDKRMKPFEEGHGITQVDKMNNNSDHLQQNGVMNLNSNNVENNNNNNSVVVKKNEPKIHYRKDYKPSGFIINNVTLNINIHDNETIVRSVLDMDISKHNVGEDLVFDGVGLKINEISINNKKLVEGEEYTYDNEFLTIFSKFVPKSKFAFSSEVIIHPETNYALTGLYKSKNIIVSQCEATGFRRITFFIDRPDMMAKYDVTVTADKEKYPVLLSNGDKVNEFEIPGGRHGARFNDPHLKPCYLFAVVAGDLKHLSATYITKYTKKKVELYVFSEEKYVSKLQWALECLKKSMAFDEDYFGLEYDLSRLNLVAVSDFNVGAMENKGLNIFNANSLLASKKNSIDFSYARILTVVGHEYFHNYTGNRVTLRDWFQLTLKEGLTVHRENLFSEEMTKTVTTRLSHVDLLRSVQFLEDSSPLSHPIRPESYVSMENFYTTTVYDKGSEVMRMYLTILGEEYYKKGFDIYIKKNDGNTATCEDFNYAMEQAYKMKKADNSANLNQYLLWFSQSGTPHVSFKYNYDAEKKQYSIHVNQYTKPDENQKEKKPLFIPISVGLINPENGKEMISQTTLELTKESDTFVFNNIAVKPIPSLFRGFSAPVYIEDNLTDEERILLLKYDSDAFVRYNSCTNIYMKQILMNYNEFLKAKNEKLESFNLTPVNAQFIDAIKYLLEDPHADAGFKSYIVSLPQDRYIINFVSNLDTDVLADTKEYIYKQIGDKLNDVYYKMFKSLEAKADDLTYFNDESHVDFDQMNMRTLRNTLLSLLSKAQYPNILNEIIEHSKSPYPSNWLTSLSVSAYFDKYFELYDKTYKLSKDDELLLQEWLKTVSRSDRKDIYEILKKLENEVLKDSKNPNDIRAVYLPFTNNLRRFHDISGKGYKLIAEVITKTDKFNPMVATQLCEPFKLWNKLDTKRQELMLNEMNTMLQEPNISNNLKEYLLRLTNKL", "assay": "P. falciparum M1AAP inhibitors, biochemical, fluorogenic H-Leu-NHMec substrate, 1536-well (AID 1445)", "set-up": "species or system Plasmodium falciparum 3D7, 3D7"}, "[1]": {"biological_target": "T2, High affinity choline transporter 1 (Homo sapiens, UniProt Q9GZV3)", "T2 sequence (Q9GZV3 whole entry)": "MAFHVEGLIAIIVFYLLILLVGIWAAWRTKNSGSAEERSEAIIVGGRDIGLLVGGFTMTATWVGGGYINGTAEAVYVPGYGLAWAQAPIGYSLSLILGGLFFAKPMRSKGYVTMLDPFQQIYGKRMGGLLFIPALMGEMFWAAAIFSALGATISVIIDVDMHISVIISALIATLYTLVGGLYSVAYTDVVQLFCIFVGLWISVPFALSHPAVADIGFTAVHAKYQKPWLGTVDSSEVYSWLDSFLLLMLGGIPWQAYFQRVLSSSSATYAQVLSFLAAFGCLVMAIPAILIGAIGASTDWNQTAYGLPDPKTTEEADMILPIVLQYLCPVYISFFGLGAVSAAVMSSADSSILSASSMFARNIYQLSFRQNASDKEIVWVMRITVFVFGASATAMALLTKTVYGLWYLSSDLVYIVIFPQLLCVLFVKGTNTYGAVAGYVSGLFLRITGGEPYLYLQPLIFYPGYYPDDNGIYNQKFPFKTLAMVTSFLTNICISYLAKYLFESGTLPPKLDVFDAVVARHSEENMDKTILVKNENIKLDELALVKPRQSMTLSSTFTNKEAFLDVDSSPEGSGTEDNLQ", "assay": "CHT inhibitors, dose response, cell-based, 5-point CRC, membrane potential dye (AID 504840)", "assay_type": "functional"}, "[2]": {"assay": "Luminescence Cell-Based Dose Retest to Confirm Inhibitors of Cancer Stem Cells. [Related pubchem assays (depositor defined):AID2717, AID2721]", "assay_type": "functional", "details": "Homo sapiens"}, "Genome polyprotein": {"biological_target": "Genome polyprotein (dengue virus type 2, UniProt P29990)", "sequence (P29990 2492-3391 limits assumed)": "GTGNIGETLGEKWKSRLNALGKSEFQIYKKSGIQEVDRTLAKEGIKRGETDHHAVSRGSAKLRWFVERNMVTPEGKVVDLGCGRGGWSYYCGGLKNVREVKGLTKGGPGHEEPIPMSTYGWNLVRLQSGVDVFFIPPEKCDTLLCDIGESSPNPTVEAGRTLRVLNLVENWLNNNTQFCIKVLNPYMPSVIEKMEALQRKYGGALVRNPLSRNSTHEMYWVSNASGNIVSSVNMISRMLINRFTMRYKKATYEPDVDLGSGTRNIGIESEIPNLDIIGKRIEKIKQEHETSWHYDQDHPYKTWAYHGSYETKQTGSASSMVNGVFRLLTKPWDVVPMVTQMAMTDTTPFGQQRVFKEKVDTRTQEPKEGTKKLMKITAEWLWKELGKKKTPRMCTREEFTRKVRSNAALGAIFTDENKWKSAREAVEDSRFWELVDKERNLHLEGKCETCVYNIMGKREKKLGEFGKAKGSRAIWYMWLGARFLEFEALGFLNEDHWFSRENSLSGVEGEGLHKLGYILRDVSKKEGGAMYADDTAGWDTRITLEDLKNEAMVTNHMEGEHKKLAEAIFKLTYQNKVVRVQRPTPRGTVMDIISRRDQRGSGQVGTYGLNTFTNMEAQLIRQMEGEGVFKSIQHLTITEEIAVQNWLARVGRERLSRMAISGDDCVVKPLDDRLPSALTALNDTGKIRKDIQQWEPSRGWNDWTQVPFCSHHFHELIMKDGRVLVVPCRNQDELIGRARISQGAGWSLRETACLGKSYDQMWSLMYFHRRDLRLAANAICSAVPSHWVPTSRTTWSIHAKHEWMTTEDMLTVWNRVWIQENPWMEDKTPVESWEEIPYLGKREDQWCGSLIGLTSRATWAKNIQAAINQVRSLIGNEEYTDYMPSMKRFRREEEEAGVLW", "assay": "Dengue-2 NS5 methyltransferase inhibitors, primary screen, biochemical, confirmation dose response (AID 588689)", "assay_type": "functional"}, "[3]": {"assay": "A549 cell cytotoxicity, dose response, cytotoxicity control, plate reader, cherry-pick, antagonist series (AID 743412)", "assay_type": "functional, cell-based"}, "[4]": {"assay": "intracellular Trypanosoma cruzi inhibitors in host cells – cell-based, plate reader, cherry-pick samples, set 3, dose response (AID 651818);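 further: compounds incubated with infected cells for about four days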", "assay_type": "functional"}, "Paired box protein Pax-8": {"biological_target": "Paired box protein Pax-8 (Homo sapiens, UniProt Q06710)", "sequence (Q06710 whole entry)": "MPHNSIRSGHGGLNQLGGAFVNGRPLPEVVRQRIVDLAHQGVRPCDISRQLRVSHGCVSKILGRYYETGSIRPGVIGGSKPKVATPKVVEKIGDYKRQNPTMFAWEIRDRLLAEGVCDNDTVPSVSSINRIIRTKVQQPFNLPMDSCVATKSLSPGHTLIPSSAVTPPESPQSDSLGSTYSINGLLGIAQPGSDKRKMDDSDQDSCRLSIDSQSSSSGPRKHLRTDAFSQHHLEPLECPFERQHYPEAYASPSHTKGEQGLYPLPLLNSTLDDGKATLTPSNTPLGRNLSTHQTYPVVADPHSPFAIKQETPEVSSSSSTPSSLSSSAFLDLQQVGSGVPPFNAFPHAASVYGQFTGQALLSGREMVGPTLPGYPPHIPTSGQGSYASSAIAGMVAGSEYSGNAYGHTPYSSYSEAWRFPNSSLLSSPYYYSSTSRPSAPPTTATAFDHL", "assay": "inhibitors of PAX8-driven TPO luciferase reporter, dose response, RMG-I cells, cherry-pick (AID 687027);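 further: luciferase reporter driven by Pax8 target thyroperoxidase promoter measured by SteadyGlo luminescence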", "assay_type": "functional, cell-based"}, "[5]": {"assay": "cytotoxicity in OVCAR8 ovarian cancer cells, dose response, PAX8 project, cell-based, plate reader, dry powder samples (AID 743197)", "assay_type": "functional", "details": "OVCAR-8"}, "cells [6]": {"assay": "cells", "assay_type": "functional, cell-based"}, "cells [7]": {"assay": "cells", "assay_type": "functional, cell-based", "remark": "listed apart in the source"}}, "note": "Calls of active or inactive are those of the source.", "data": [{"compound": "COc1ccc(CNC(=O)C2CCN(S(=O)(=O)c3cc(OC)ccc3OC)CC2)cc1", "values": [{"measurement": "IC50", "setting": "Aminopeptidase N", "result": "99 µM (active)"}]}, {"compound": "Cc1ccc(C)c(C(=O)COc2ncnc3ccccc23)c1", "values": [{"measurement": "IC50", "setting": "[1]", "result": "15.1 µM (active)"}]}, {"compound": "CCc1ccc2oc(C(=O)NCC(c3ccc(OC)cc3)N3CCCCC3)c(C)c2c1", "note": "(configuration not stated)", "values": [{"measurement": "AC50", "setting": "[2]", "result": "3.23 µM (active)"}, {"measurement": "IC50", "setting": "[1]", "result": "2.29 µM (active)"}]}, {"compound": "O=C(O)c1cccc(S(=O)(=O)Nc2ccc([N+](=O)[O-])cc2O)c1", "values": [{"measurement": "IC50", "setting": "Aminopeptidase N", "result": "66.2 µM (active)"}]}, {"compound": "O=S(=O)(c1ccc2c(c1)OCCO2)N1CCC(n2nnc3cc(F)ccc32)CC1", "values": [{"measurement": "IC50", "setting": "Aminopeptidase N", "result": "8.18 µM (active)"}]}, {"compound": "CCc1ccc(S(=O)(=O)NCc2cn3cccc(C)c3n2)s1", "values": [{"measurement": "IC50", "setting": "[1]", "result": "13.8 µM (active)"}]}, {"compound": "Nc1ccccc1Sc1ccc(C(=O)c2ccccc2C(=O)O)cc1[N+](=O)[O-]", "values": [{"measurement": "IC50", "setting": "Aminopeptidase N", "result": "98.9 µM (active)"}]}, {"compound": "O=C1NC(=O)C(=Cc2c[nH]nc2-c2ccccc2)C(=O)N1", "values": [{"measurement": "IC50", "setting": "Genome polyprotein", "result": "53 µM (active)"}]}, {"compound": "CC[C@H](CO)Oc1cc(NCc2ccc(Cl)c(Cl)c2)c2ncn(C(C)C)c2c1", "values": [{"measurement": "AC50", "setting": "[3]", "result": "30 µM (active)"}]}, {"compound": "COc1ccc(C2(O)CCN(C(=O)NC3CCCCC3)CC2)cc1", "values": [{"measurement": "IC50", "setting": "[1]", "result": "14.5 µM (active)"}]}, {"compound": "Cc1noc(NS(=O)(=O)c2ccc(NC(=O)c3ccccc3NS(=O)(=O)c3ccc(F)cc3)cc2)c1C", "values": [{"measurement": "IC50", "setting": "Genome polyprotein", "result": "40.9 µM (active)"}]}, {"compound": "O=C1c2ccccc2C(O)(c2ccccc2)N1c1ccc([N+](=O)[O-])cc1Cl", "note": "(configuration not stated)", "values": [{"measurement": "IC50", "setting": "Genome polyprotein", "result": "60.8 µM (active)"}]}, {"compound": "C[C@@H]1CN([C@@H](C)CO)C(=O)Cc2cc(NC(=O)CCC(F)(F)F)ccc2O[C@@H]1CN(C)Cc1ccc(C(=O)Nc2ccccc2N)cc1", "values": [{"measurement": "AC50", "setting": "[4]", "result": "2.67 µM (active)"}]}, {"compound": "C[C@H]1CN([C@@H](C)CO)C(=O)c2cccc(NC(=O)Nc3ccc(F)cc3)c2O[C@@H]1CN(C)Cc1ccc(C(=O)Nc2ccccc2N)cc1", "values": [{"measurement": "AC50", "setting": "[4]", "result": "3.18 µM (active)"}]}, {"compound": "C[C@@H]1CN([C@@H](C)CO)C(=O)c2cccc(NC(=O)c3cnccn3)c2O[C@@H]1CN(C)Cc1ccc(C(=O)Nc2ccccc2N)cc1", "values": [{"measurement": "AC50", "setting": "[4]", "result": "2.35 µM (active)"}]}, {"compound": "C[C@@H]1CN([C@H](C)CO)C(=O)c2cccc(NC(=O)c3ccncc3)c2O[C@@H]1CN(C)Cc1ccc(-c2ccccc2)cc1", "values": [{"measurement": "AC50", "setting": "[4]", "result": "4.37 µM (active)"}]}, {"compound": "C[C@@H]1CN([C@@H](C)CO)C(=O)c2cccc(NC(=O)C3CCCCC3)c2O[C@H]1CN(C)Cc1ccc(-c2ccccc2)cc1", "values": [{"measurement": "AC50", "setting": "[4]", "result": "3.29 µM (active)"}]}, {"compound": "C[C@H]1CCCCO[C@H](CN(C)Cc2ccc(Cl)c(Cl)c2)[C@@H](C)CN([C@@H](C)CO)C(=O)c2cc(NC(=O)Nc3ccccc3)ccc2O1", "values": [{"measurement": "AC50", "setting": "Paired box protein Pax-8", "result": "13.1 µM (active)"}, {"measurement": "AC50", "setting": "[5]", "result": "> 70 µM (inactive)"}]}, {"compound": "C[C@@H]1CCCCO[C@@H](CN(C)Cc2ccc(C(F)(F)F)cc2)[C@@H](C)CN([C@@H](C)CO)C(=O)c2cc(NS(=O)(=O)c3ccccc3)ccc2O1", "values": [{"measurement": "AC50", "setting": "Paired box protein Pax-8", "result": "7.21 µM (active)"}, {"measurement": "AC50", "setting": "[5]", "result": "> 70 µM (inactive)"}]}, {"compound": "C[C@@H]1CN([C@H](C)CO)C(=O)c2cc(NS(=O)(=O)c3ccccc3)ccc2O[C@@H](C)CCCCO[C@H]1CN(C)Cc1ccc(Cl)c(Cl)c1", "values": [{"measurement": "AC50", "setting": "Paired box protein Pax-8", "result": "9.93 µM (active)"}, {"measurement": "AC50", "setting": "[5]", "result": "45 µM (active)"}]}, {"compound": "O=C(CNC(=O)c1ccccc1Br)N/N=C/c1cc(Br)ccc1O", "values": [{"measurement": "EC50", "setting": "cells [6]", "result": "> 350 µM (not active)"}, {"measurement": "IC50", "setting": "Aminopeptidase N", "result": "26.6 µM (active)"}, {"measurement": "EC50", "setting": "cells [7]", "result": "34.7 µM (active)"}]}]}
